# Assay results reported in publication PMC11182288, “Effects of Netarsudil-Family Rho Kinase Inhibitors on Human Trabecular Meshwork Cell Contractility and Actin Remodeling Using a Bioengineered ECM Hydrogel” (Frontiers in Ophthalmology, 2022).
# “Also recorded” adds a separate entry of the source. Where two headings read alike, the source gives them in different places.
# B1: TGFβ2: transforming growth factor beta 2, used to induce a glaucoma-like cell phenotype (protein, UniProt P61812 303-414, looked up)
# Transforming growth factor …: ALDAAYCFRNVQDNCCLRPLYIDFKRDLGWKWIHEPKGYNANFCAGACPYLWSSDTQHSRVLSLYNTINPEASASPCCVSQDLEPLTILYYIGKTPKIEQLSNMIVKSCKCS
# Key:
# ROCK1 = target: T1, ROCK1 (Homo sapiens, UniProt Q13464); assay: ROCK1 protein kinase assay (Kinase-Glo Luminescent Kinase Assay); assay type: biochemical
# T1 construct: purchased Invitrogen; Thermo Fisher Scientific
# Experimental: (§1) Dose response analyses were conducted to establish IC50 values, which were converted to Ki values using the Cheng-Prusoff Equation Ki = IC50/(1 + ([ATP]/Km ATP).
# [1] = test system: transformed HTM cells (TM-1); assay: Cell-based assay measuring disruption of focal adhesions (paxillin staining); parameters: species or system human; conditions: 6 h, TM-1 cells on fibronectin-coated glass, Mean ± SEM, N ≥ 3
# Experimental: Cell-based assays measuring disruption of focal adhesions were conducted using transformed HTM cells (TM-1; kind gift from Donna Peters; Department of Ophthalmology and Visual Sciences, University of Wisconsin), as previously described ([39]). […] TM-1 cells were stained with an anti-paxillin primary antibody followed by incubation with an Alexa Fluor-488 fluorescent secondary antibody and Hoechst 33342 counterstain (all from Invitrogen) to reveal focal adhesions and nuclei, respectively. Images were collected on an INCell 1000 imager (GE Healthcare, Marlborough, MA, USA), and total area of focal adhesions was measured using a custom algorithm developed using the INCell Developer Toolbox, v1.6. Dose response analyses were conducted to establish IC50 values.
# [2] = test system: HTM cell-encapsulated ECM hydrogels; assay: HTM hydrogel contraction analysis after TGFβ2 induction and ROCKi rescue; assay type: cell-based, human; conditions: for HTM hydrogel contraction reversal compared with 10 µM Y27632 / Concentrations giving significantly decreased HTM hydrogel contraction compared to the TGFβ2 group / EC50: HTM07; for Concentrations giving significantly decreased HTM hydrogel contraction compared to the TGFβ2 group: dose range 0.0001-1.0 µM, 5-10 d; for EC50 / Increase of HTM hydrogel contraction over controls: TGFβ2 2.5 ng/ml 0-5 d; for EC50: then ROCKi 0.0001-1.0 µM 5-10 d, read-out: EC50, reduction of TGFβ2-induced HTM hydrogel contraction
# Experimental: HTM cells (1.0 × 10^6 cells/ml) were thoroughly mixed with MA-COL (3.6 mg/ml), SH-HA (0.5 mg/ml, 0.025% (w/v) photoinitiator) and SH-ELP (2.5 mg/ml) on ice ( Supplementary Figure 2A ), followed by pipetting 10 μl droplets of the HTM cell-laden hydrogel precursor solution onto polydimethylsiloxane-coated (PDMS; Sylgard 184; Dow Corning) 24-well culture plates ( Supplementary Figure 2B ), according to our established protocols ([32]–[34]). Alternatively, 30 µl droplets of the HTM cell-laden hydrogel precursor solution were pipetted onto Surfasil-coated (Fisher Scientific) 18 × 18-mm square glass coverslips followed by placing a regular 12-mm round glass coverslip onto the hydrogels to facilitate even spreading of the polymer solution. HTM hydrogels were crosslinked by exposure to UV light (OmniCure S1500 UV Spot Curing System; Excelitas Technologies, Mississauga, Ontario, Canada) at 320-500 nm, 2.2 W/cm^2 for 5 s. The HTM hydrogel-adhered coverslips were removed with fine-tipped tweezers and placed hydrogel-side facing up in PDMS-coated 24-well culture plates ( Supplementary Figure 2C ).
# Longitudinal brightfield images of HTM hydrogels subjected to the different treatments were acquired at 0 d and 10 d with an Eclipse Ti microscope (Nikon Instruments, Melville, NY, USA). Construct area was measured using Fiji software (National Institutes of Health (NIH), Bethesda, MD, USA) and normalized to 0 d followed by normalization to controls.
# [3] = test system: F-actin stress fibers in hydrogel-encapsulated HTM cells; assay: HTM hydrogel immunocytochemistry, F-actin stress fibers; assay type: cell-based, human; conditions: for Effect on TGFβ2-induced F-actin stress fibers vs. TGFβ2 group: HTM05, HTM07, HTM36
# Experimental: Alternatively, 30 µl droplets of the HTM cell-laden hydrogel precursor solution were pipetted onto Surfasil-coated (Fisher Scientific) 18 × 18-mm square glass coverslips followed by placing a regular 12-mm round glass coverslip onto the hydrogels to facilitate even spreading of the polymer solution. HTM hydrogels were crosslinked by exposure to UV light (OmniCure S1500 UV Spot Curing System; Excelitas Technologies, Mississauga, Ontario, Canada) at 320-500 nm, 2.2 W/cm^2 for 5 s. The HTM hydrogel-adhered coverslips were removed with fine-tipped tweezers and placed hydrogel-side facing up in PDMS-coated 24-well culture plates ( Supplementary Figure 2C ).
# Nuclei were counterstained with 4′,6′-diamidino-2-phenylindole (DAPI; Abcam). Coverslips were mounted with ProLong™ Gold Antifade (Invitrogen) on Superfrost™ microscope slides (Fisher Scientific), and fluorescent images were acquired with a Zeiss LSM 780 confocal microscope (Zeiss, Germany). […] Individual z-stacks consisted of 7 slices with the z-step interval set to […]. Fluorescence signal intensity of F-actin and αSMA were determined using Z-project maximum intensity projections in Fiji (NIH) with image background subtraction.
# ROCK1/2 [4] = assay: ROCK1/2 kinase assays, average of both isoforms; assay type: biochemical, human; conditions: average of ROCK1 and ROCK2 Ki
# Experimental: as §1
# [5] = test system: normotensive Dutch Belted rabbits; parameters: method as in unpublished data; conditions: ref unpublished data; cited from earlier work
# cellular esterases = conditions: stated in discussion, no reference given; cited from earlier work
# [6] = test system: transformed HTM cells (TM-1); conditions: same cell-based assay; ref [13]; read-out: IC50 of Y27632, HTM cell focal adhesion disruption; cited from earlier work
# ROCK1/2 [7] = conditions: same biochemical assay; ref [13]; read-out: Ki of Y27632; cited from earlier work
# ROCK2 = target: T2, ROCK2 (Homo sapiens, UniProt O75116); assay: ROCK2 protein kinase assay (Kinase-Glo Luminescent Kinase Assay); assay type: biochemical
# T2 construct: purchased Invitrogen; Thermo Fisher Scientific
# Experimental: as §1
# [8] = stated in discussion, no reference given; cited from earlier work
# [9] = each compound at its respective EC50, HTM05, HTM07, HTM36
# [10] = each compound at its respective EC50
# [11] = each compound at its respective EC50, across HTM05, HTM07, HTM36, 10 d
# [12] = each compound at its respective EC50, pooled HTM05, HTM07, HTM36, 10 d
# [13] = TGFβ2 induction group, across three cell strains
# T2 sequence (O75116 whole entry): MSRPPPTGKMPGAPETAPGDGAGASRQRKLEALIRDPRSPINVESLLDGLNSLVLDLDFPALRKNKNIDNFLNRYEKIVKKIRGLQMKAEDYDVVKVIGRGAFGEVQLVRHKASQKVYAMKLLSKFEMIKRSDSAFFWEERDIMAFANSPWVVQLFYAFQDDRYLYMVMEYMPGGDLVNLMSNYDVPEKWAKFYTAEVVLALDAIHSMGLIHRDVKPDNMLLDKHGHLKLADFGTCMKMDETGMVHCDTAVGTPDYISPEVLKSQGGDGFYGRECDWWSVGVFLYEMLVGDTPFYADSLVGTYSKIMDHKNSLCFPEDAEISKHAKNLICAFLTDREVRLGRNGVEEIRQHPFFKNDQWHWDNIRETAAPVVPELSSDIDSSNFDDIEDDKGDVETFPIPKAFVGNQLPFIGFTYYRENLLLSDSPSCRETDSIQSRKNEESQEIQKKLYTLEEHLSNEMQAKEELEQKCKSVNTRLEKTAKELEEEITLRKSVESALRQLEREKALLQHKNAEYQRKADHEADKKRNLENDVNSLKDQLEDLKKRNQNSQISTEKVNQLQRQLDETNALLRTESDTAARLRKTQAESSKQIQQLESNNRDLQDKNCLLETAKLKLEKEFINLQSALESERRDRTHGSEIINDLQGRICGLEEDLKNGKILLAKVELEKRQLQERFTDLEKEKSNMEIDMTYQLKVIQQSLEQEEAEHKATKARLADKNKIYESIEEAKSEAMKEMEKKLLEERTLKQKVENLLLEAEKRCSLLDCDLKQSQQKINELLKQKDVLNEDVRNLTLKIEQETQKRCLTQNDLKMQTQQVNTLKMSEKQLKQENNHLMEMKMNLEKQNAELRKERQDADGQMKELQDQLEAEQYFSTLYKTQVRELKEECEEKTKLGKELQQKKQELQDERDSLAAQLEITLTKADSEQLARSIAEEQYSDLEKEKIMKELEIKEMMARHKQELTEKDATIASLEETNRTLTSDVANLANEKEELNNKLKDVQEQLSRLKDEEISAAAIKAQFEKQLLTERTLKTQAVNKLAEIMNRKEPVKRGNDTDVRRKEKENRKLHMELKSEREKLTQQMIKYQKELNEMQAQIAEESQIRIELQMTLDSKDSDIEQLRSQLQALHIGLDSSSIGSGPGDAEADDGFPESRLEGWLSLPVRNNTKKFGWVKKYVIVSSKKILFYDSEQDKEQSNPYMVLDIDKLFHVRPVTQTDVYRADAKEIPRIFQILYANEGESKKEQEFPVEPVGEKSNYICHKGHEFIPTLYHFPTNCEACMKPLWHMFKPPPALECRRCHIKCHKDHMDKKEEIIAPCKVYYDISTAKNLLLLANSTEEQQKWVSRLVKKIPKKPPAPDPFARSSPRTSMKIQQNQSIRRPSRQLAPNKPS
# T1 sequence (Q13464 whole entry): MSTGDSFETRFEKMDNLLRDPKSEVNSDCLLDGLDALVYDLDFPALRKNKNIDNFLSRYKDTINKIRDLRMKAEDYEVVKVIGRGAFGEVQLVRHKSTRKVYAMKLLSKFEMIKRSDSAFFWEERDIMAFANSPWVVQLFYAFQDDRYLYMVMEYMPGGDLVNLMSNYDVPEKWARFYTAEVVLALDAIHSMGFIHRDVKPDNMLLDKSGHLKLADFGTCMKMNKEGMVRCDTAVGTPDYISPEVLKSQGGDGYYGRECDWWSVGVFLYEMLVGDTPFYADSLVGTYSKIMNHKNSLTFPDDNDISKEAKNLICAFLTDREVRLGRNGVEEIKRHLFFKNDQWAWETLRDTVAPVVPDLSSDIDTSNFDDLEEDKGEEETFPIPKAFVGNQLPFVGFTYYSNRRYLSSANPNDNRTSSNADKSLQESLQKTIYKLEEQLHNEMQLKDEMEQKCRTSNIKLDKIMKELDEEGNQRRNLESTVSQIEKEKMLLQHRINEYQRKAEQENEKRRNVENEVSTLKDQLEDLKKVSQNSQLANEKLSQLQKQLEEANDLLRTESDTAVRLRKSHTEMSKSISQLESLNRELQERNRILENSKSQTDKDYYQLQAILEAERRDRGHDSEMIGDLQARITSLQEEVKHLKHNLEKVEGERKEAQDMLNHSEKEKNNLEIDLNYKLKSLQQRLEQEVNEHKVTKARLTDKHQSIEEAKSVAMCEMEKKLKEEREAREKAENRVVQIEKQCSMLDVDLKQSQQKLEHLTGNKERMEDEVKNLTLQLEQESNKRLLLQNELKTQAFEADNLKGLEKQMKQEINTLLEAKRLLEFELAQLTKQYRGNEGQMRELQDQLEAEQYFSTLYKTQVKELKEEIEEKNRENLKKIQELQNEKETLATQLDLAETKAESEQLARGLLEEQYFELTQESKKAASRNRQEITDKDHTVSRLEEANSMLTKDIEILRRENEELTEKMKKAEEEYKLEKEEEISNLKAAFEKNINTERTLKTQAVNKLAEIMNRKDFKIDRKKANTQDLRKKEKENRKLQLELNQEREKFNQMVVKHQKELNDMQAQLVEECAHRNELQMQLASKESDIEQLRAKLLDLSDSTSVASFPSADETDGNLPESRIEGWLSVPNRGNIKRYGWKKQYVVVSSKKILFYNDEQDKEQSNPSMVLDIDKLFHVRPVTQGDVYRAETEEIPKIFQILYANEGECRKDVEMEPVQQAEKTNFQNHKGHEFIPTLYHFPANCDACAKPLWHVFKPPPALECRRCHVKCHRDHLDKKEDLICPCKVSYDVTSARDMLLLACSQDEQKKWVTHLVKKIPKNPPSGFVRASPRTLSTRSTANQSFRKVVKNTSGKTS
molecule,measurement,setting,value
NC[C@@H](C(=O)Nc1ccc2cnccc2c1)c1ccc(COC(=O)c2ccccc2)cc1 [Compound A],Ki,ROCK1,1.5 ± 0.7 nM
same,IC50,[1]; Homo sapiens,~15 nM
same,HTM hydrogel contraction reversal compared with 10 µM Y27632,[2]; compound at 1.0 µM,not different
same,Concentrations giving significantly decreased HTM hydrogel contraction compared to the TGFβ2 group,[2],≥ 0.01 µM
same,EC50,"[2]; Homo sapiens, HTM",3.7 nM
same,Effect on TGFβ2-induced HTM hydrogel contraction vs. TGFβ2 group,[2]; [9],failed to reverse
same,"Effect on TGFβ2-induced HTM hydrogel contraction, HTM36","[2]; uniform ROCKi concentration of 35.9 nM, HTM36",significantly decreased
same,Effect on TGFβ2-induced F-actin stress fibers vs. TGFβ2 group,[3]; [10],not different from TGFβ2
same,Ki,ROCK1/2 [4],~1.4 nM
same,Intraocular pressure lowering,[5],did not perform as well; also recorded: unable to significantly lower intraocular pressure
same,Metabolism by cellular esterases (ester hydrolysis),cellular esterases,more quickly metabolized than netarsudil
"C[C@@H](N)[C@H]1CC[C@H](C(=O)Nc2ccncc2)CC1 [Compound Y27632, Y27632]",IC50,[6],~1740 nM
same,Ki,ROCK1/2 [7],~31.5 nM
NC[C@@H](C(=O)Nc1ccc2cnccc2c1)c1ccc(Cl)cc1 [Compound C],Ki,ROCK1,1.8 ± 0.3 nM
same,Ki,ROCK2,1.2 ± 0.4 nM
same,IC50,[1]; Homo sapiens,~5.6 nM
same,HTM hydrogel contraction reversal compared with 10 µM Y27632,[2]; compound at 1.0 µM,comparable
same,Concentrations giving significantly decreased HTM hydrogel contraction compared to the TGFβ2 group,[2],≥ 0.01 µM
same,EC50,"[2]; Homo sapiens, HTM",6.7 nM
same,Effect on TGFβ2-induced HTM hydrogel contraction vs. TGFβ2 group,[2]; [9],failed to rescue
same,Relative hydrogel size vs. controls,[2]; [11],~ 87%
same,Effect on TGFβ2-induced F-actin stress fibers vs. TGFβ2 group,[3]; [10],significantly different from TGFβ2
same,Relative F-actin signal fold-change vs. controls,[3]; [12],~ 1.3 fold-change
same,Ki,ROCK1/2 [4],~1.5 nM
same,Intraocular pressure lowering,[5],did not perform as well; also recorded: unable to significantly lower intraocular pressure
same,Metabolism by cellular esterases (ester hydrolysis),cellular esterases,cannot be metabolized by cellular esterases at all
NC[C@@H](C(=O)Nc1ccc2cnccc2c1)c1ccc(O)cc1 [Compound D],Ki,ROCK1,4.5 ± 2 nM
same,Ki,ROCK2,1.7 ± 0.7 nM
same,IC50,[1]; Homo sapiens,~193 nM
same,Concentrations giving significantly decreased HTM hydrogel contraction compared to the TGFβ2 group,[2],≥ 0.1 µM
same,EC50,"[2]; Homo sapiens, HTM",123 nM
same,Effect on TGFβ2-induced HTM hydrogel contraction vs. TGFβ2 group,[2]; [9],significantly decreased
same,Relative hydrogel size vs. controls,[2]; [11],~ 96%
same,Effect on TGFβ2-induced F-actin stress fibers vs. TGFβ2 group,[3]; [10],significantly decreased TGFβ2-induced F-actin stress fibers across all three HTM cell strains
same,Relative F-actin signal fold-change vs. controls,[3]; [12],~ 0.8 fold-change
same,Ki,ROCK1/2 [4],~3.1 nM
same,Intraocular pressure lowering,[5],did not perform as well as netarsudil
same,Ionization at physiological pH,[8],partially ionized at physiological pH
Cc1ccc(C(=O)OCc2ccc([C@@H](CN)C(=O)Nc3ccc4cnccc4c3)cc2)c(C)c1 [Netarsudil],IC50,[1],17 ± 2 nM
same,IC50,[1]; listed as netarsudil,~17 nM
same,"Effect on TGFβ2-induced HTM hydrogel contraction, overall across HTM07 and HTM36",[2],significantly decreased
same,EC50,[2],35.9 nM
same,HTM hydrogel contraction reversal compared with 10 µM Y27632,[2]; compound at 0.1 µM,equivalent
same,HTM hydrogel contraction reversal compared with 10 µM Y27632,[2]; compound at 1.0 µM,significantly more potent
same,Concentrations giving significantly decreased HTM hydrogel contraction compared to the TGFβ2 group,[2],≥ 0.01 µM
same,"Difference in efficacy, netarsudil 1.0 µM vs. 35.9 nM","[2]; HTM hydrogel contraction, across three cell strains",~ 1.2 fold
same,Effect on TGFβ2-induced HTM hydrogel contraction vs. TGFβ2 group,[2]; [9],significantly decreased
same,Effect on TGFβ2-induced F-actin stress fibers vs. TGFβ2 group,[3]; [10],significantly decreased
same,Effect on F-actin signal,"[3]; max level netarsudil, 1.0 µM",nearly abolishing the F-actin signal
same,Ki,ROCK1/2 [4],~2.7 nM
NC[C@@H](C(=O)Nc1ccc2cnccc2c1Cl)c1ccccc1 [Compound B],Ki,ROCK1,1.7 nM
same,Ki,ROCK2,2 nM
same,Concentrations giving significantly decreased HTM hydrogel contraction compared to the TGFβ2 group,[2],≥ 0.1 µM
same,EC50,"[2]; Homo sapiens, HTM",22.2 nM
same,Effect on TGFβ2-induced HTM hydrogel contraction vs. TGFβ2 group,[2]; [9],significantly decreased TGFβ2-induced HTM hydrogel contraction using HTM05 and HTM36 cells
same,Relative hydrogel size vs. controls,[2]; [11],~ 105%
same,Effect on TGFβ2-induced F-actin stress fibers vs. TGFβ2 group,[3]; [10],significantly decreased
same,Relative F-actin signal fold-change vs. controls,[3]; [12],~ 1.1 fold-change
same,Ki,ROCK1/2 [4],~1.9 nM
same,Intraocular pressure lowering,[5],did not perform as well as netarsudil
same,Metabolism by cellular esterases (ester hydrolysis),cellular esterases,cannot be metabolized by cellular esterases at all
B1,Increase of HTM hydrogel contraction over controls,"[2]; HTM05, HTM07, HTM36",~ 25%
same,Increase of HTM hydrogel contraction over controls,"[2]; HTM07 and HTM36, higher passage cells",~ 15%
same,Relative hydrogel size vs. controls,[2]; [13],~ 75%
same,Relative F-actin signal fold-change vs. controls,[3]; [13],~ 1.9 fold-change
